# Laboratory results reported in PubChem BioAssay AID2060896 (Molecular Pharmacology Branch, DTP, NCI, 2025).
# Test system: 941728-121-R-J1-PDC complex spheroid viability
# Test: Anticancer human tumor 941728-121-R-J1-PDC patient-derived lung adenocarcinoma cell line growth inhibition [RAS]
# Settings: for IC50: curve of first compound; for viability, T/C: stronger effect = lower value
# Summary of the method: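 Tumour cells grown as complex spheroids with HUVEC endothelial cells and mesenchymal stem cells, treated with RAS pathway inhibitor combinations. Each agent spans half-log steps from near clinical Cmax, or 10 microM where Cmax is unknown.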
# 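Note: spheroids exposed to compounds for 7 days before readout.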
# 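Throughout, for viability, T/C: 100% = DMSO vehicle control viability.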
smiles,measurement,setting,value
NC1c2ccccc2OC12CCN(c1cnc3c(N4CCCc5ncccc54)n[nH]c3n1)CC2 (stereo unspecified) + CCn1c(-c2cccnc2C(C)OC)c2c3cc(ccc31)N1CCOC(CC(NC(=O)C(C(C)C)N(C)C(=O)C3(F)CCN(C(=O)C#CC(C)(C)N(C)C)CC3)C(=O)N3CCCC(N3)C(=O)OCC(C)(C)C2)C1,IC50,second compound 0.000949 µM,< 31.6 nM
same,IC50,second compound 0.003 µM,< 31.6 nM
same,IC50,second compound 0.00949 µM,< 31.6 nM
same,IC50,second compound 0.03 µM,< 31.6 nM
same,IC50,second compound 0.0949 µM,< 31.6 nM
same,IC50,second compound 0.3 µM,< 31.6 nM
same,"viability, T/C","second compound 0.000949 µM, first compound 0.0316 µM",18.5%
same,"viability, T/C","second compound 0.000949 µM, first compound 0.1 µM",17.7%
same,"viability, T/C","second compound 0.000949 µM, first compound 0.316 µM",12.8%
same,"viability, T/C","second compound 0.000949 µM, first compound 1 µM",17.6%
same,"viability, T/C","second compound 0.000949 µM, first compound 3.16 µM",16.6%
same,"viability, T/C","second compound 0.000949 µM, first compound 10 µM",13.9%
same,"viability, T/C","second compound 0.003 µM, first compound 0.0316 µM",16.5%
same,"viability, T/C","second compound 0.003 µM, first compound 0.1 µM",15.7%
same,"viability, T/C","second compound 0.003 µM, first compound 0.316 µM",15.1%
same,"viability, T/C","second compound 0.003 µM, first compound 1 µM",15.9%
same,"viability, T/C","second compound 0.003 µM, first compound 3.16 µM",17.1%
same,"viability, T/C","second compound 0.003 µM, first compound 10 µM",13.5%
same,"viability, T/C","second compound 0.00949 µM, first compound 0.0316 µM",17.8%
same,"viability, T/C","second compound 0.00949 µM, first compound 0.1 µM",15.3%
same,"viability, T/C","second compound 0.00949 µM, first compound 0.316 µM",17.9%
same,"viability, T/C","second compound 0.00949 µM, first compound 1 µM",18.3%
same,"viability, T/C","second compound 0.00949 µM, first compound 3.16 µM",16.7%
same,"viability, T/C","second compound 0.00949 µM, first compound 10 µM",15.4%
same,"viability, T/C","second compound 0.03 µM, first compound 0.0316 µM",19.2%
same,"viability, T/C","second compound 0.03 µM, first compound 0.1 µM",17.6%
same,"viability, T/C","second compound 0.03 µM, first compound 0.316 µM",18.8%
same,"viability, T/C","second compound 0.03 µM, first compound 1 µM",17.1%
same,"viability, T/C","second compound 0.03 µM, first compound 3.16 µM",16.1%
same,"viability, T/C","second compound 0.03 µM, first compound 10 µM",20.3%
same,"viability, T/C","second compound 0.0949 µM, first compound 0.0316 µM",19.7%
same,"viability, T/C","second compound 0.0949 µM, first compound 0.1 µM",19.4%
same,"viability, T/C","second compound 0.0949 µM, first compound 0.316 µM",19%
same,"viability, T/C","second compound 0.0949 µM, first compound 1 µM",18.9%
same,"viability, T/C","second compound 0.0949 µM, first compound 3.16 µM",16%
same,"viability, T/C","second compound 0.0949 µM, first compound 10 µM",20.2%
same,"viability, T/C","second compound 0.3 µM, first compound 0.0316 µM",20.2%
same,"viability, T/C","second compound 0.3 µM, first compound 0.1 µM",20.5%
same,"viability, T/C","second compound 0.3 µM, first compound 0.316 µM",20.8%
same,"viability, T/C","second compound 0.3 µM, first compound 1 µM",18.2%
same,"viability, T/C","second compound 0.3 µM, first compound 3.16 µM",18.6%
same,"viability, T/C","second compound 0.3 µM, first compound 10 µM",22.6%
O=C(c1ccc(F)c(F)c1Nc1ccc(I)cc1F)N1CC(O)([C@@H]2CCCCN2)C1 + C=CC(=O)N1CCN(c2nc(OCC3CCCN3C)nc3c(F)c(-c4nc(N)cc(C)c4C(F)(F)F)c(Cl)cc23)C(C)C1,IC50,second compound 0.00316 µM,< 3.16 nM
same,IC50,second compound 0.01 µM,< 3.16 nM
same,IC50,second compound 0.0316 µM,< 3.16 nM
same,IC50,second compound 0.1 µM,< 3.16 nM
same,IC50,second compound 0.316 µM,< 3.16 nM
same,IC50,second compound 1 µM,< 3.16 nM
same,"viability, T/C","second compound 0.00316 µM, first compound 0.00316 µM",20.4%
same,"viability, T/C","second compound 0.00316 µM, first compound 0.01 µM",19.1%
same,"viability, T/C","second compound 0.00316 µM, first compound 0.0316 µM",15.5%
same,"viability, T/C","second compound 0.00316 µM, first compound 0.1 µM",14.5%
same,"viability, T/C","second compound 0.00316 µM, first compound 0.316 µM",12.7%
same,"viability, T/C","second compound 0.00316 µM, first compound 1 µM",11.8%
same,"viability, T/C","second compound 0.01 µM, first compound 0.00316 µM",18.9%
same,"viability, T/C","second compound 0.01 µM, first compound 0.01 µM",14.6%
same,"viability, T/C","second compound 0.01 µM, first compound 0.0316 µM",16.7%
same,"viability, T/C","second compound 0.01 µM, first compound 0.1 µM",12.9%
same,"viability, T/C","second compound 0.01 µM, first compound 0.316 µM",12.5%
same,"viability, T/C","second compound 0.01 µM, first compound 1 µM",11.6%
same,"viability, T/C","second compound 0.0316 µM, first compound 0.00316 µM",16.1%
same,"viability, T/C","second compound 0.0316 µM, first compound 0.01 µM",13.8%
same,"viability, T/C","second compound 0.0316 µM, first compound 0.0316 µM",13.3%
same,"viability, T/C","second compound 0.0316 µM, first compound 0.1 µM",13.9%
same,"viability, T/C","second compound 0.0316 µM, first compound 0.316 µM",13%
same,"viability, T/C","second compound 0.0316 µM, first compound 1 µM",12.1%
same,"viability, T/C","second compound 0.1 µM, first compound 0.00316 µM",22%
same,"viability, T/C","second compound 0.1 µM, first compound 0.01 µM",13.5%
same,"viability, T/C","second compound 0.1 µM, first compound 0.0316 µM",14.5%
same,"viability, T/C","second compound 0.1 µM, first compound 0.1 µM",13.8%
same,"viability, T/C","second compound 0.1 µM, first compound 0.316 µM",12.8%
same,"viability, T/C","second compound 0.1 µM, first compound 1 µM",10.9%
same,"viability, T/C","second compound 0.316 µM, first compound 0.00316 µM",15%
same,"viability, T/C","second compound 0.316 µM, first compound 0.01 µM",13.7%
same,"viability, T/C","second compound 0.316 µM, first compound 0.0316 µM",13.9%
same,"viability, T/C","second compound 0.316 µM, first compound 0.1 µM",13.1%
same,"viability, T/C","second compound 0.316 µM, first compound 0.316 µM",12.4%
same,"viability, T/C","second compound 0.316 µM, first compound 1 µM",13.5%
same,"viability, T/C","second compound 1 µM, first compound 0.00316 µM",16.4%
same,"viability, T/C","second compound 1 µM, first compound 0.01 µM",17%
same,"viability, T/C","second compound 1 µM, first compound 0.0316 µM",15.3%
same,"viability, T/C","second compound 1 µM, first compound 0.1 µM",13.2%
same,"viability, T/C","second compound 1 µM, first compound 0.316 µM",13.2%
same,"viability, T/C","second compound 1 µM, first compound 1 µM",11.1%
CC1(C)CCC(Nc2ncc(C(F)(F)F)c(-c3c[nH]c4c(P(C)(C)=O)c(C#N)ccc34)n2)CN1 (stereo unspecified) + CCn1c(-c2cc(N3CCN(C)CC3)cnc2C(C)OC)c2c3cc(ccc31)-c1csc(n1)CC(NC(=O)C1CC1C)C(=O)N1CCCC(N1)C(=O)OCC(C)(C)C2,IC50,second compound 0.000949 µM,< 0.949 nM
same,IC50,second compound 0.003 µM,< 0.949 nM
same,IC50,second compound 0.00949 µM,< 0.949 nM
same,IC50,second compound 0.03 µM,< 0.949 nM
same,IC50,second compound 0.0949 µM,< 0.949 nM
same,IC50,second compound 0.3 µM,< 0.949 nM
same,"viability, T/C","second compound 0.000949 µM, first compound 0.000949 µM",26.8%
same,"viability, T/C","second compound 0.000949 µM, first compound 0.003 µM",28.2%
same,"viability, T/C","second compound 0.000949 µM, first compound 0.00949 µM",23.5%
same,"viability, T/C","second compound 0.000949 µM, first compound 0.03 µM",27.3%
same,"viability, T/C","second compound 0.000949 µM, first compound 0.0949 µM",32.7%
same,"viability, T/C","second compound 0.000949 µM, first compound 0.3 µM",24.8%
same,"viability, T/C","second compound 0.003 µM, first compound 0.000949 µM",19.8%
same,"viability, T/C","second compound 0.003 µM, first compound 0.003 µM",18.5%
same,"viability, T/C","second compound 0.003 µM, first compound 0.00949 µM",16.6%
same,"viability, T/C","second compound 0.003 µM, first compound 0.03 µM",22.6%
same,"viability, T/C","second compound 0.003 µM, first compound 0.0949 µM",19.5%
same,"viability, T/C","second compound 0.003 µM, first compound 0.3 µM",17.1%
same,"viability, T/C","second compound 0.00949 µM, first compound 0.000949 µM",14%
same,"viability, T/C","second compound 0.00949 µM, first compound 0.003 µM",10.3%
same,"viability, T/C","second compound 0.00949 µM, first compound 0.00949 µM",11.3%
same,"viability, T/C","second compound 0.00949 µM, first compound 0.03 µM",14.4%
same,"viability, T/C","second compound 0.00949 µM, first compound 0.0949 µM",12.3%
same,"viability, T/C","second compound 0.00949 µM, first compound 0.3 µM",12.2%
same,"viability, T/C","second compound 0.03 µM, first compound 0.000949 µM",10.8%
same,"viability, T/C","second compound 0.03 µM, first compound 0.003 µM",9.52%
same,"viability, T/C","second compound 0.03 µM, first compound 0.00949 µM",9.8%
same,"viability, T/C","second compound 0.03 µM, first compound 0.03 µM",10.9%
same,"viability, T/C","second compound 0.03 µM, first compound 0.0949 µM",9.73%
same,"viability, T/C","second compound 0.03 µM, first compound 0.3 µM",11.7%
same,"viability, T/C","second compound 0.0949 µM, first compound 0.000949 µM",9.88%
same,"viability, T/C","second compound 0.0949 µM, first compound 0.003 µM",9.37%
same,"viability, T/C","second compound 0.0949 µM, first compound 0.00949 µM",10%
same,"viability, T/C","second compound 0.0949 µM, first compound 0.03 µM",11.1%
same,"viability, T/C","second compound 0.0949 µM, first compound 0.0949 µM",8.77%
same,"viability, T/C","second compound 0.0949 µM, first compound 0.3 µM",11.9%
same,"viability, T/C","second compound 0.3 µM, first compound 0.000949 µM",9.86%
same,"viability, T/C","second compound 0.3 µM, first compound 0.003 µM",9.92%
same,"viability, T/C","second compound 0.3 µM, first compound 0.00949 µM",9.46%
same,"viability, T/C","second compound 0.3 µM, first compound 0.03 µM",8.06%
same,"viability, T/C","second compound 0.3 µM, first compound 0.0949 µM",9.53%
same,"viability, T/C","second compound 0.3 µM, first compound 0.3 µM",10.4%
